Results as given in US10159249B2 (BAYER CROPSCIENCE AKTIENGESELLSCHAFT, priority 2013, dated 2018).
Like-named read-outs stand apart in the source and are kept apart here. Marks after values point to notes of the source that are not given here.

Columns and labels:
PfHPPD (SEQ ID No 46) = molecular target: T1, PfHPPD (SEQ ID No 46) (Pseudomonas sp., UniProt P80064); assay: HPPD activity in presence of inhibitor, HGD assay; type: biochemical, Pseudomonas fluorescens
T1 construct: made in house; host or cells: E. coli K-12 BL21, vector pSE420(RI)NX-PfHPPD
T1 sequence (P80064 other isoform, or with tags, fused parts or gaps with the stated changes): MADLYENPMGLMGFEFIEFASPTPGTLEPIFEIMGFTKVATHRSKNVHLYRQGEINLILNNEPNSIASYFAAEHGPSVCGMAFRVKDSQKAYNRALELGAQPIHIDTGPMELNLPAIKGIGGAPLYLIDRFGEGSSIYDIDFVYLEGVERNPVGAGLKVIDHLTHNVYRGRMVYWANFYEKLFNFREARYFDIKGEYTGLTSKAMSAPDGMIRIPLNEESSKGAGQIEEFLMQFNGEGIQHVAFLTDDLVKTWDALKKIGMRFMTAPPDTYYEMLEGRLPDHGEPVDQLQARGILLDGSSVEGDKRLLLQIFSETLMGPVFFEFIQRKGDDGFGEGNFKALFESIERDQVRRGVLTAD
Method: (§1) With the HGD assay HPPD activity was measured at room temperature by adding appropriate amounts of HPPD to a solution of 200 mM Tris-HCl pH 7.6, 10 mM ascorbate, 20 μM FeSO4, 650 units of catalase, 8 μg HGA dioxygenase (HGA: homogentisate) and 600 μM HPP in a total volume of 1 ml. Initial reaction rates were determined from the increase in absorbance at 318 nm due to the formation of maleylacetoacetate (ε318=11,900 M-1 cm-1).
(§2) In cases, the symbol “>” is used this means that the value was far higher than the one indicated but could not be precisely calculated within in the range of concentration of inhibitor tested.
(§3) In the 1st column of Table 1, the HPPD employed in the assay is named and in the 2nd column of Table 1, the corresponding SEQ ID No of present invention is disclosed.

[1] = molecular target: Avena sativa Δ A109 (SEQ ID No 43) (Avena sativa, UniProt A0ACD5V6K6, DEL109-109); assay: HPPD activity in presence of inhibitor, HGD assay; type: biochemical
Chain of Avena sativa Δ A109 (SEQ ID No 43) (A0ACD5V6K6 entry or part of it DEL109-109): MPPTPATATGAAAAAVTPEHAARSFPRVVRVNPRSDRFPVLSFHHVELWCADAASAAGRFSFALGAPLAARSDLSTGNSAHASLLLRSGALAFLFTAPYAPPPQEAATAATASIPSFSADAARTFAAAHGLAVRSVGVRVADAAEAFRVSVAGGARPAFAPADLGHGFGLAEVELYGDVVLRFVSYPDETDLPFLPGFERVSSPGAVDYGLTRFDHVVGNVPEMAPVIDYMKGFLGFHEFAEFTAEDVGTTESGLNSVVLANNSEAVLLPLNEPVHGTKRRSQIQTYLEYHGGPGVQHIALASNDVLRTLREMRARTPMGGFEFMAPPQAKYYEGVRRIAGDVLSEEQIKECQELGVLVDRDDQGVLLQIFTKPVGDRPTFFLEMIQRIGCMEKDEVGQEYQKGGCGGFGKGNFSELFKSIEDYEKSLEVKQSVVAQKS
Method: as §1, §2, §3

[2] = system: Control maize plants (EPSPS selectable marker gene, no HPPD variant); assay: Greenhouse trial, maize T0 plants, leaf area damage; type: in vivo; settings: for number of events, herbicide tolerance class 0 (41%-100% damaged leaf area) / number of events, herbicide tolerance class 1 (16%-40% damaged leaf area) / number of events, herbicide tolerance class 2 (6%-15% damaged leaf area) / number of events, herbicide tolerance class 3 (0%-5% damaged leaf area): maize Control
Method: Regenerated T0 events from tissue culture were transplanted into two inch square pots with synthetic soil (Fafard® Mix) and controlled-released fertilizer (Haifa Multicote™; polymer-coated controlled-release fertilizer, NPK Pro 18-6-12+Micronutrients) and cultivated in the greenhouse (GH) under supplementary high pressure sodium light for 12 days at a maximum of 30° C. during the day and a minimum of 22° C. at night. Fully recovered plants were transferred into five inch square pots filled with synthetic soil and control released fertilizer under the same environmental conditions. […] All herbicide treatments were conducted in a DeVries Tracker Sprayer system with standard application protocols, which are well known in the art. As a spray control T0 events have been sprayed with the adjunvant mixture lacking the herbicide.
A rating of “1” was assigned to plants having a moderate tolerance with 16% to 40% damage of total leaf area. A rating of “2” was assigned to plants with good tolerance within the range of 6% to 15% damage of total leaf area.

wild type soybean Merlin = type: in vivo; settings: scored after 21 days
[3] = system: transgenic soybean T1 plants expressing PfHPPD-G336W; type: in vivo; settings: for number of events, herbicide tolerance class 0 (41%-100% damaged leaf area) / number of events, herbicide tolerance class 1 (16%-40% damaged leaf area) / number of events, herbicide tolerance class 2 (6%-15% damaged leaf area) / number of events, herbicide tolerance class 3 (0%-5% damaged leaf area): scored after 21 days
Euphorbia heterophylla = assay: Field trial, weed efficacy, post applied; type: in vivo; settings: application at 5 leaf stage, assessment 14 days after application
Amaranthus retroflexus = settings: (A) 50 g ai/ha; application at 6 leaf stage; assessment 14 days after application
[4] = 25 g AI/ha, evaluation 9 days after treatment
[5] = 50 g AI/ha, six days after application
[6] = 100 g AI/ha, six days after application
[7] = soybean Merlin (wt), 6.25 g AI/ha

## CSc1c(C(F)(F)F)ccc(C(=O)Nc2nnnn2C)c1Cl
PfHPPD (SEQ ID No 46); 0.2 μM inhibitor
  inhibition at 0.2 µM: 76%
PfHPPD (SEQ ID No 46); room temperature, 600 μM HPP, molar concentration, read-out: pI50 (converted)
  IC50: 100 nM
[1]
  IC50: 2000 nM
[1]; 0.2 μM inhibitor, HGD assay
  inhibition at 0.2 µM: 8%
[2]; all control events, 25 g of AI/ha
  bleaching symptoms: severe bleaching symptoms
[2]; control maize T0 events without HPPD variant, 25 g AI/ha
  leaf damage: 100%
[2]; [4]
  number of events, herbicide tolerance class 0 (41%-100% damaged leaf area): 5*
  number of events, herbicide tolerance class 1 (16%-40% damaged leaf area): 0
  number of events, herbicide tolerance class 2 (6%-15% damaged leaf area): 0
  number of events, herbicide tolerance class 3 (0%-5% damaged leaf area): 0
[2]; [5]
  number of events, herbicide tolerance class 0 (41%-100% damaged leaf area): 4
  number of events, herbicide tolerance class 1 (16%-40% damaged leaf area): 0
  number of events, herbicide tolerance class 2 (6%-15% damaged leaf area): 0
  number of events, herbicide tolerance class 3 (0%-5% damaged leaf area): 0
[2]; [6]
  number of events, herbicide tolerance class 0 (41%-100% damaged leaf area): 50
  number of events, herbicide tolerance class 1 (16%-40% damaged leaf area): 0
  number of events, herbicide tolerance class 2 (6%-15% damaged leaf area): 0
  number of events, herbicide tolerance class 3 (0%-5% damaged leaf area): 0
Wild type soybean Merlin; [7]
  number of events, herbicide tolerance class 0 (41%-100% damaged leaf area): 4
  number of events, herbicide tolerance class 1 (16%-40% damaged leaf area): 0
  number of events, herbicide tolerance class 2 (6%-15% damaged leaf area): 0
  number of events, herbicide tolerance class 3 (0%-5% damaged leaf area): 0
Wild type soybean Merlin; soybean Merlin, 25 g AI/ha
  number of events, herbicide tolerance class 0 (41%-100% damaged leaf area): 4
  number of events, herbicide tolerance class 1 (16%-40% damaged leaf area): 0
  number of events, herbicide tolerance class 2 (6%-15% damaged leaf area): 0
  number of events, herbicide tolerance class 3 (0%-5% damaged leaf area): 0
[3]; 6.25 g AI/ha
  number of events, herbicide tolerance class 0 (41%-100% damaged leaf area): 0
  number of events, herbicide tolerance class 1 (16%-40% damaged leaf area): 0
  number of events, herbicide tolerance class 2 (6%-15% damaged leaf area): 0
  number of events, herbicide tolerance class 3 (0%-5% damaged leaf area): 12
[3]; 25 g AI/ha
  number of events, herbicide tolerance class 0 (41%-100% damaged leaf area): 0
  number of events, herbicide tolerance class 1 (16%-40% damaged leaf area): 0
  number of events, herbicide tolerance class 2 (6%-15% damaged leaf area): 0
  number of events, herbicide tolerance class 3 (0%-5% damaged leaf area): 16
[3]; 50 g AI/ha
  number of events, herbicide tolerance class 0 (41%-100% damaged leaf area): 0
  number of events, herbicide tolerance class 1 (16%-40% damaged leaf area): 4
  number of events, herbicide tolerance class 2 (6%-15% damaged leaf area): 0
  number of events, herbicide tolerance class 3 (0%-5% damaged leaf area): 0
[3]; 75 g AI/ha
  number of events, herbicide tolerance class 0 (41%-100% damaged leaf area): 0
  number of events, herbicide tolerance class 1 (16%-40% damaged leaf area): 3
  number of events, herbicide tolerance class 2 (6%-15% damaged leaf area): 1
  number of events, herbicide tolerance class 3 (0%-5% damaged leaf area): 0
[3]; in vivo
  herbicide tolerance: high tolerance
Euphorbia heterophylla; (A) 25 g ai/ha
  Efficacy (%) Euphorbia heterophylla: 15%
Euphorbia heterophylla; (A) 75 g ai/ha
  Efficacy (%) Euphorbia heterophylla: 35%
Amaranthus retroflexus
  Efficacy (%) Amaranthus retroflexus: 65%
